What was measured:
K. pneumoniae [1] = experiment: MIC in the presence of a fixed concentration (2 μg/mL) of Rifampicin; type: cell-based, Klebsiella pneumoniae; conditions: Rifampicin 2 μg/mL, Table 5D
Method: (§1) The inoculum was prepared by making a direct suspension of isolated colonies (selected from an 18-24 hour Mueller-Hinton agar plate) adjusted to the 0.5 McFarland standard. […] The assays were performed in duplicate. […] In cases where the duplicate values varied by less than 2-fold, the lower of the two values is reported. If a variation of greater than 2-fold was observed, the assay was considered non-valid. Several of the compounds were subjected to multiple tests, and where this is the case, the MIC reflects the modal value obtained.

K. pneumoniae [2] = conditions: absence of a second agent, Table 6B
P. aeruginosa = conditions: absence of a second agent, Table 6B
E. coli [3] = conditions: absence of a second agent, Table 6B
A. baumannii [4] = conditions: absence of a second agent, Table 6B
E. coli [5] = experiment: MIC in the presence of a fixed concentration (2 μg/mL) of Rifampicin; type: cell-based, Escherichia coli; conditions: Rifampicin 2 μg/mL, Table 5D
A. baumannii [6] = experiment: MIC in the presence of […] of rifampicin; type: cell-based, Acinetobacter baumannii; conditions: for MIC in combination with Rifampicin, A. baumannii ATCC BAA-747: A. baumannii ATCC BAA-747, Table 5D; for MIC in combination with Rifampicin, A. baumannii NCTC 13424: A. baumannii NCTC 13424, Table 5D
Method: as §1

[7] = system: E. coli strains with elevated MICs to Polymyxin B; experiment: MIC against strains with elevated MICs to Polymyxin B; type: cell-based, Escherichia coli; conditions: Table 6D
In short: (§2)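 Colonies picked from an 18-24 hour Mueller-Hinton agar plate are suspended directly and adjusted to 0.5 McFarland. Each MIC is run in duplicate. Values within 2-fold give the lower one; wider spread voids the assay; repeated testing yields the modal value.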

[8] = system: K. pneumoniae strains with elevated MICs to Polymyxin B; experiment: as above; type: cell-based, Klebsiella pneumoniae; conditions: Table 6D
In short: as §2

[9] = system: A. baumanii strains with elevated MICs to Polymyxin B; experiment: as above; type: cell-based, Acinetobacter baumannii; conditions: Table 6D
In short: as §2

[10] = system: P. aeruginosa strains with elevated MICs to Polymyxin B; experiment: as above; type: cell-based, Pseudomonas aeruginosa; conditions: Table 6D
In short: as §2

| Substance | MIC in combination with Rifampicin, K. pneumoniae ATCC 4352 (K. pneumoniae [1]) [micrograms/mL] | MIC in combination with Rifampicin, K. pneumoniae ATCC BAA-2146 (K. pneumoniae [1]) [micrograms/mL] | MIC, K. pneumoniae ATCC 4352 (K. pneumoniae [2]) [micrograms/mL] | MIC, K. pneumoniae ATCC BAA-2146 (K. pneumoniae [2]) [micrograms/mL] | MIC, P. aeruginosa ATCC 27853 (P. aeruginosa) [micrograms/mL] | MIC, P. aeruginosa CCUG 59347 (P. aeruginosa) [micrograms/mL] | MIC, E. coli NCTC 13441 (E. coli [3]) [micrograms/mL] | MIC, A. baumannii ATCC BAA-747 (A. baumannii [4]) [micrograms/mL] | MIC, A. baumannii NCTC 13424 (A. baumannii [4]) [micrograms/mL] | MIC in combination with Rifampicin, E. coli ATCC 25922 (E. coli [5]) [micrograms/mL] | MIC in combination with Rifampicin, E. coli NCTC 13441 (E. coli [5]) [micrograms/mL] | MIC in combination with Rifampicin, A. baumannii ATCC BAA-747 (A. baumannii [6]) [micrograms/mL] | MIC in combination with Rifampicin, A. baumannii NCTC 13424 (A. baumannii [6]) [micrograms/mL] | MIC, E. coli ATCC 25922 (E. coli [3]) [micrograms/mL] | further results |
| --- | --- | --- | --- | --- | --- | --- | --- | --- | --- | --- | --- | --- | --- | --- | --- |
| (trans-5-cyclohexyl- piperidine)-3-carbonyl polymyxin B nonapeptide [Example D13] | 0.125 | 0.125 | 0.125 | 0.25 | 0.5 | 0.5 | 0.125 | 0.5 | 0.125 | 0.06 | 0.125 | 0.125 | 0.06 |  |  |
| (S)-1-octyl-piperazine- 2-carbonyl polymyxin B nonapeptide [Example D28] | 0.5 | 2 | 0.25 | 0.5 | 0.5 | 1 | 0.125 | 0.25 | 1 | 1 | 0.5 | 1 | 1 | 0.125 | MIC E. coli 058 ([7]; strain 058, elevated MIC to Polymyxin B): 0.5 micrograms/mL; MIC E. coli 059 ([7]; strain 059, elevated MIC to Polymyxin B): 0.5 micrograms/mL; MIC E. coli 060 ([7]; strain 060, elevated MIC to Polymyxin B): 2 micrograms/mL; MIC E. coli 061 ([7]; strain 061, elevated MIC to Polymyxin B): 4 micrograms/mL; MIC K. pneumoniae 062 ([8]; strain 062, elevated MIC to Polymyxin B): 8 micrograms/mL; MIC K. pneumoniae 063 ([8]; strain 063, elevated MIC to Polymyxin B): 16 micrograms/mL; MIC K. pneumoniae 064 ([8]; strain 064, elevated MIC to Polymyxin B): 2 micrograms/mL; MIC K. pneumoniae 655 ([8]; strain 655, elevated MIC to Polymyxin B): 16 micrograms/mL; MIC A. baumannii 053 ([9]; strain 053, elevated MIC to Polymyxin B): 32 micrograms/mL; MIC A. baumannii 056 ([9]; strain 056, elevated MIC to Polymyxin B): 16 micrograms/mL; MIC A. baumannii 068 ([9]; strain 068, elevated MIC to Polymyxin B): 4 micrograms/mL; MIC A. baumannii 070 ([9]; strain 070, elevated MIC to Polymyxin B): 4 micrograms/mL; MIC P. aeruginosa 065 ([10]; strain 065, elevated MIC to Polymyxin B): 0.5 micrograms/mL; MIC P. aeruginosa 066 ([10]; strain 066, elevated MIC to Polymyxin B): 4 micrograms/mL; MIC P. aeruginosa 067 ([10]; strain 067, elevated MIC to Polymyxin B): 32 micrograms/mL |
| (5-Phenyl-piperidine)- 3-carbonyl polymyxin B nonapeptide [Example D7] | 0.125 | 0.5 | 8 | >8 | 2 | >8 | >8 | >8 | >8 | 0.06 | 0.5 | 1 | 0.03 | >8 |  |
